Where two headings read alike, the source gives them in different places.
Experiments:
[1] = molecular target: T1, STAT6 (Homo sapiens, UniProt P42226); experiment: STAT6 Reporter Luciferase Assay (IL-13 stimulated HaCaT keratinocyte NanoLuc reporter cells); assay type: cell-based; details: read-out: Reporter EC50
T1 construct: stably transfected HaCaT keratinocyte cell line, which expresses NanoLuc luciferase reporter gene under the transcriptional control of the STAT6 responsive promoter; endogenous in cells; host or cells: HaCaT keratinocyte reporter cell line (stably transfected with a NanoLuc reporter)
T1 sequence (P42226 1-847): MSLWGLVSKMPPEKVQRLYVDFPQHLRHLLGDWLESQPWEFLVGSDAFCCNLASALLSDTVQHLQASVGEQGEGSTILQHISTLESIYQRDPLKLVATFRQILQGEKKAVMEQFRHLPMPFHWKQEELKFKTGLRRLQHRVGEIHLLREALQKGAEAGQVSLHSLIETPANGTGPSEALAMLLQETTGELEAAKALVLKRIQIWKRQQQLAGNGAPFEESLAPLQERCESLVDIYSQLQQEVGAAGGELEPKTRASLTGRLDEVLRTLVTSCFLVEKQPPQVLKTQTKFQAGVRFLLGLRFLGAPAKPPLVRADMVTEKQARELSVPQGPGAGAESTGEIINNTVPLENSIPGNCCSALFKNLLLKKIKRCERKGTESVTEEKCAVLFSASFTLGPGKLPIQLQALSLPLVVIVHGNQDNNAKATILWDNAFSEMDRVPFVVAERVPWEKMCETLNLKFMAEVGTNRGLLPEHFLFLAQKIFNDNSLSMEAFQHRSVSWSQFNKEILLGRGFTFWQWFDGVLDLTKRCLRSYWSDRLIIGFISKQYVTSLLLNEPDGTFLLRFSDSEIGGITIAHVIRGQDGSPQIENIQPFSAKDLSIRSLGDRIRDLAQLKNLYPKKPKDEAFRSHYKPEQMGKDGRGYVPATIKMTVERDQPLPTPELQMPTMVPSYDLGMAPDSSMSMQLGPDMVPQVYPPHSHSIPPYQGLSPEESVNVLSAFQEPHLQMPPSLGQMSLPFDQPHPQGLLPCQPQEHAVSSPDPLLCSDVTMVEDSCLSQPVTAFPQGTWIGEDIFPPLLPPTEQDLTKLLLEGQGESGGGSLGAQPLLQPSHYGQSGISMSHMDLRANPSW
In short: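 Compounds were tested as 11-point, 4-fold series in duplicate, applied for 2 h at 37 °C in low-serum (2% FBS) DMEM. The cells were a stable HaCaT line with NanoLuc under a STAT6-responsive IL-13Ra2 promoter. After 4 h with 0.12 nM IL-13, Nano-Glo luminescence was measured.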

[2] = system: CCL17 secretion in peripheral human whole blood; experiment: Human Whole Blood (HWB) CCL17 TR-FRET Assay (IL-13 stimulated CCL17 secretion); assay type: cell-based
In short: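 Compounds are titrated (11 points, 3-fold, duplicate) into fresh heparinized human whole blood and held 2 h at 37 °C before IL-13 challenge (10 ng/mL final). After 48 h at 37 °C, serum CCL17 is measured by TR-FRET sandwich assay and IC50 values are calculated.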

[3] = STAT6 NanoLuc luciferase reporter, IL-13 stimulated HaCaT keratinocyte cells
[4] = inhibition of CCL17 secretion in human whole blood, 10 ng/mL IL13, 48 hours
[5] = Homo sapiens, 48 h, inhibition of CCL17 secretion in human whole blood, 10 ng/mL IL13, 48 hours
[6] = IL-13 stimulated HaCaT STAT6 NanoLuc reporter cells
[7] = human whole blood, IL-13 stimulated, 48 hours

| SMILES | EC50 [1, 3] [nM] | IC50 [2, 4] [nM] | IC50 [2, 5] [nM] | EC50 [1, 6] [nM] | IC50 [2, 7] [nM] |
| --- | --- | --- | --- | --- | --- |
| CCC1CN(c2ccc(C(=O)N(C)C)cn2)Cc2c(C(=O)NCc3ccc(NC(=O)N(C)C)cc3)nn(C)c21 (single isomer, unassigned) [Example 58, rel-(R or S)-5-(5-(Dimethylcarbamoyl)pyridin-2-yl)-N-(4-(3,3-dimethylureido)benzyl)-7-ethyl-1-methyl-4,5,6,7-tetrahydro-1H-pyrazolo[4,3-c]pyridine-3-carboxamide] | 24 | 170 | – | – | – |
| CCn1nc(C(=O)NCc2ccc(NC(=O)N(C)C)cc2)c2c1[C@H](C)CN(c1ccc(C(=O)N(C)C)cn1)C2 (single isomer, unassigned) [Example 63] | 14 | – | 105 | – | – |
| CCC1CN(c2ccc(C(=O)N(C)C)cn2)Cc2c(C(=O)NCc3ccc(NC(=O)N(C)C)cc3)nn(C)c21 (single isomer, unassigned) [Example 78, rel-(R or S)-5-(5-(Dimethylcarbamoyl)pyridin-2-yl)-N-(4-(3,3-dimethylureido)benzyl)-7-ethyl-1-methyl-4,5,6,7-tetrahydro-1H-pyrazolo[4,3-c]pyridine-3-carboxamide] | 3 | 14 | – | – | – |
| CCC1CN(c2ccc(C(=O)N(C)C)cn2)Cc2c(C(=O)NCc3ccc(NC(=O)N(C)C)cc3)n[nH]c21 (single isomer, unassigned) [Example 82, rel-(R or S)-5-(5-(dimethylcarbamoyl)pyridin-2-yl)-N-(4-(3,3-dimethylureido)benzyl)-7-ethyl-4,5,6,7-tetrahydro-1H-pyrazolo[4,3-c]pyridine-3-carboxamide] | 101 | 112 | – | – | – |
| CCC1CN(c2ccc(C(=O)N(C)C)cn2)Cc2c(C(=O)NCc3ccc(NC(=O)N(C)C)cc3)n[nH]c21 (single isomer, unassigned) [Example 83, rel-(R or S)-5-(5-(dimethylcarbamoyl)pyridin-2-yl)-N-(4-(3,3-dimethylureido)benzyl)-7-ethyl-4,5,6,7-tetrahydro-1H-pyrazolo[4,3-c]pyridine-3-carboxamide] | 86 | 278 | – | – | – |
| CC(C1CC1)n1nc(C(=O)NCc2ccc(NC(=O)N(C)C)cc2)c2c1CCN(c1ccc(C(=O)N(C)C)cn1)C2 (single isomer, unassigned) [Example 87, rel-(R or S)-1-(1-cyclopropylethyl)-5-(5-(dimethylcarbamoyl)pyridin-2-yl)-N-(4-(3,3-dimethylureido)benzyl)-4,5,6,7-tetrahydro-1H-pyrazolo[4,3-c]pyridine-3-carboxamide] | 15 | – | 118 | – | – |
| CCn1nc(C(=O)NCc2ccc(NC(=O)N(C)C)cc2)c2c1C[C@H](C)N(c1ccc(C(=O)N(C)C)cn1)C2 (single isomer, unassigned) [Example 111] | 3 | – | 13 | – | – |
| CC(C)n1nc(C(=O)NCc2ccc(NC(=O)N(C)C)cc2)c2c1[C@H](C)CN(c1ccc(C(=O)N(C)C)cn1)C2 (single isomer, unassigned) [Example 112] | 15 | – | 78 | – | – |
| CCn1nc(C(=O)NCc2ccc(NC(=O)N(C)C)cc2)c2c1C[C@@H](C)N(c1ccc(C(=O)N(C)C)cn1)C2 (single isomer, unassigned) [Example 113] | 17 | – | 161 | – | – |
| CCC1Cc2c(c(C(=O)NCc3ccc(NC(=O)N(C)C)cc3)nn2CC)CN1c1ccc(C(=O)N(C)C)cn1 (single isomer, unassigned) [Example 117, rel-(R or S)-5-(5-(dimethylcarbamoyl)pyridin-2-yl)-N-(4-(3,3-dimethylureido)benzyl)-1,6-diethyl-4,5,6,7-tetrahydro-1H-pyrazolo[4,3-c]pyridine-3-carboxamide] | 3 | 13 | – | – | – |
| CCC1Cc2c(c(C(=O)NCc3ccc(NC(=O)N(C)C)cc3)nn2CC)CN1c1ccc(C(=O)N(C)C)cn1 (single isomer, unassigned) [Example 118, rel-(R or S)-5-(5-(dimethylcarbamoyl)pyridin-2-yl)-N-(4-(3,3-dimethylureido)benzyl)-1,6-diethyl-4,5,6,7-tetrahydro-1H-pyrazolo[4,3-c]pyridine-3-carboxamide] | 25 | 116 | – | – | – |
| C[C@H]1CN(c2ccc(C(=O)N(C)C)cn2)Cc2c(C(=O)NCc3ccc(NC(=O)N(C)C)cc3)nn(C3CCC3)c21 (single isomer, unassigned) [Example 119] | 0.3 | – | 4 | – | – |
| C[C@@H]1Cc2c(c(C(=O)NCc3ccc(NC(=O)N(C)C)cc3)nn2C)CN1c1ccc(-c2nccn2C)cn1 (single isomer, unassigned) [Example 122] | 24 | – | 900 | – | – |
| CC(C)n1nc(C(=O)NCc2ccc(-c3ncc[nH]3)cc2)c2c1C(C(F)(F)F)CN(c1ccc(C(=O)N(C)C)cn1)C2 (single isomer, unassigned) [Example 123, rel-(R or S)-N-(4-(1H-imidazol-2-yl)benzyl)-5-(5-(dimethylcarbamoyl)pyridin-2-yl)-1-isopropyl-7-(trifluoromethyl)-4,5,6,7-tetrahydro-1H-pyrazolo[4,3-c]pyridine-3-carboxamide] | 41 | 1010 | – | – | – |
| CC(C)n1nc(C(=O)NCc2ccc(-c3ncc[nH]3)cc2)c2c1C(C(F)(F)F)CN(c1ccc(C(=O)N(C)C)cn1)C2 (single isomer, unassigned) [Example 124, rel-(R or S)-N-(4-(1H-imidazol-2-yl)benzyl)-5-(5-(dimethylcarbamoyl)pyridin-2-yl)-1-isopropyl-7-(trifluoromethyl)-4,5,6,7-tetrahydro-1H-pyrazolo[4,3-c]pyridine-3-carboxamide] | 0.3 | 5 | – | – | – |
| CC(C)n1nc(C(=O)NCc2ccc(NC(=O)N(C)C)cc2)c2c1[C@@H](C)CN(c1ccc(C(=O)N(C)C)cn1)C2 (single isomer, unassigned) [Example 128] | 0.3 | – | 3 | – | – |
| CCC1CN(c2ccc(C(=O)N(C)C)cn2)Cc2c(C(=O)NCc3ccc(NC(=O)N(C)C)cc3)nc(C)n21 (single isomer, unassigned) [Example 131, rel-(R or S)-7-(5-(dimethylcarbamoyl)pyridin-2-yl)-N-(4-(3,3-dimethylureido)benzyl)-5-ethyl-3-methyl-5,6,7,8-tetrahydroimidazo[1,5-a]pyrazine-1-carboxamide] | 103 | – | 256 | – | – |
| CN(C)C(=O)Nc1ccc(CNC(=O)c2nn(C3CCOC3)c3c2CN(c2ccc(C(=O)N(C)C)cn2)CC3)cc1 (single isomer, unassigned) [Example 190, rel-(R or S)-5-(5-(dimethylcarbamoyl)pyridin-2-yl)-N-(4-(3,3-dimethylureido)benzyl)-1-(tetrahydrofuran-3-yl)-4,5,6,7-tetrahydro-1H-pyrazolo[4,3-c]pyridine-3-carboxamide] | – | – | – | 20 | 38 |
| CN(C)C(=O)Nc1ccc(CNC(=O)c2nn(C3CCOC3)c3c2CN(c2ccc(C(=O)N(C)C)cn2)CC3)cc1 (single isomer, unassigned) [Example 191, rel-(R or S)-5-(5-(dimethylcarbamoyl)pyridin-2-yl)-N-(4-(3,3-dimethylureido)benzyl)-1-(tetrahydrofuran-3-yl)-4,5,6,7-tetrahydro-1H-pyrazolo[4,3-c]pyridine-3-carboxamide] | – | – | – | 32 | 126 |
| CC1CN(c2ccc(-c3nccn3C)cn2)Cc2c(C(=O)NCc3ccc(NC(=O)N(C)C)cc3)nn(C)c21 (single isomer, unassigned) [Example 203, rel-(R or S)-N-(4-(3,3-dimethylureido)benzyl)-1,7-dimethyl-5-(5-(1-methyl-1H-imidazol-2-yl)pyridin-2-yl)-4,5,6,7-tetrahydro-1H-pyrazolo[4,3-c]pyridine-3-carboxamide] | – | – | – | 1 | 16 |

Reference: patent US20250320213A1, “Nitrogen-Containing Heterocyclic Compounds” (Pfizer Inc., priority 2024, published 2025)
